The values below come from US11603349B2, “Anti-fibrotic compounds” (Certa Therapeutics Pty Ltd, priority 2017, dated 2023).

Structures can show the parent of a compound that is named as a salt.

The nature of series [1]: MTS tetrazolium reduction cell viability assay. The conditions noted are these: rat, rat mesangial cells (1097/IRMC cells), TGF-β1 stimulated, CC50 (μM), vs 1% DMSO vehicle. For orientation: Tetrazolium dyes change colour on reduction, which living cells bring about.
A short description of series [2]: Discrete oral pharmacokinetic studies in male Sprague Dawley rats. The conditions noted are these: male SD rats. In kind it is in vivo, rat. The protocol:
Discrete oral pharmacokinetic studies were performed for example compounds 116, 107, and 102.
116: 2 mg/kg and 20 mg/kg of 116 were administered as single doses to male Sprague Dawley (SD) rats. 75 mg/kg and 350 mg/kg of 116 were administered daily (5 days) to male Sprague Dawley (SD) rats.
107: 2 mg/kg and 20 mg/kg of 107 were administered as single doses to male Sprague Dawley (SD) rats. 75 mg/kg and 350 mg/kg of 107 were administered daily (5 days) to male Sprague Dawley (SD) rats.
102: 2 mg/kg and 20 mg/kg of 102 were administered as single doses to male Sprague Dawley (SD) rats. 75 mg/kg and 350 mg/kg of 102 were administered daily (5 days) to male Sprague Dawley (SD) rats. […] An increase in plasma concentrations were observed between the 75 and 350 mg/kg/day dosing groups.

Series [3] has as its system TGF-β induced [14C]-proline incorporation in rat mesangial cells. Nature of the series: [14C]-proline incorporation assay (collagen biosynthesis). Format: cell-based. Conditions: Rattus norvegicus, Mesangial cell, 44 h.
Where [4] appears, read: inhibition of TGF-β1 (1 ng/ml) induced [14C]-proline incorporation, IRMC cells.

Usually CC50 stands for the concentration that lowers cell viability or growth by half. The term IC50 denotes the concentration that gives 50% inhibition. As for `COc1cc(/C=C/C(=O)Nc2ccccc2C(=O)O)ccc1CC1CC1` [Example 102, 2-[[(E)-3-[4-(cyclopropylmethyl)-3-methoxyphenyl]prop-2-enoyl]amino]benzoic Acid], the CC50 at 48 h in series [1] turned out to be 11.4 µM. The “coverage of IC50 relative to a 200 mg/kg/day regime of FT011” value in series [2] (20 mg/kg), in series [2] (75 mg/kg) and in series [2] (350 mg/kg) was “superior” in each case. Moreover, in series [2] (after the initial dose), the “change in plasma concentrations between the 75 and 350 mg/kg/day dosing groups” value was “An increase”. Besides, in series [2] (daily, throughout the 5-day study), the “trough concentrations, 75 and 350 mg/kg/day dosing group” value is on record as “consistent with dosing amounts”. Further, the IC50 in series [3] (setting [4]) worked out at 3.87 µM.
In series [1], `C#CCOc1ccc(/C=C/C(=O)Nc2ccccc2C(=O)NCc2ccccn2)cc1OC` [Example 41, (E)-2-(3-(3-methoxy-4-(prop-2-yn-1-yloxy)phenyl)acrylamido)-N-(pyridin-2-ylmethyl)benzamide] registered a CC50 at 48 h of 341 µM. Further, in series [3] (setting [4]), the IC50 came to 24.8 µM.
`C#CCOc1ccc(/C=C/C(=O)Nc2ccccc2C(=O)NCCc2ccncc2)cc1OC` [Example 46, (E)-2-(3-(3-methoxy-4-(prop-2-yn-1-yloxy)phenyl)acrylamido)-N-(2-(pyridin-4-yl)ethyl)benzamide] showed a CC50 at 48 h in series [1] of 186 µM. In series [3] (setting [4]), this molecule registered an IC50 of 46.6 µM.
`COc1ccc(/C=C/C(=O)Nc2ccccc2C(=O)O)cc1OCc1ccnn1C` [Example 67, (E)-2-(3-(4-methoxy-3-((1-methyl-1H-pyrazol-5-yl)methoxy)phenyl)acrylamido)benzoic acid] yielded a CC50 at 48 h in series [1] of 144 µM. The IC50 in series [3] (setting [4]) came to 23.5 µM.
In turn, `COc1ccc(/C=C/C(=O)Nc2cccc(C#N)c2)c(OCCN(C)C)c1` [Example 93, (E)-N-(3-cyanophenyl)-3-(2-(2-(dimethylamino)ethoxy)-4-methoxyphenyl)acrylamide] came in with a CC50 at 48 h in series [1] of 17.2 µM. In addition, in series [3] (setting [4]), the IC50 stood at 5.23 µM.
With `C#CCOc1ccc(/C=C/C(=O)Nc2ccccc2-c2n[nH]c(C)n2)cc1OC` [Example 2, (E)-3-(3-methoxy-4-(prop-2-yn-1-yloxy)phenyl)-N-(2-(5-methyl-1H-1,2,4-triazol-3-yl)phenyl)acrylamide], the CC50 at 48 h in series [1] was more than 300 µM. For the same molecule, the IC50 in series [3] (setting [4]) was 10.4 µM.
The molecule `COc1ccc(/C=C/C(=O)Nc2ccccc2C(=O)O)cc1OCCc1ccncc1` [Example 65, (E)-2-(3-(4-methoxy-3-(2-(pyridin-4-yl)ethoxy)phenyl)acrylamido)benzoic acid] registered a CC50 at 48 h in series [1] of 152 µM. The midpoint of inhibition in series [3] (setting [4]), the IC50, lay at 18.3 µM.
As for `COc1cc(/C=C/C(=O)Nc2ccccc2C(=O)O)ccc1OC1CCN(C)C1` (stereo not shown) [Example 51, (E)-2-(3-(3-methoxy-4-((1-methylpyrrolidin-3-yl)oxy)phenyl)acrylamido)benzoic acid], the CC50 at 48 h in series [1] was more than 300 µM. The molecule also displayed an IC50 in series [3] (setting [4]) of 15.5 µM.
With `COc1cc(/C=C/C(=O)Nc2ccccc2C(=O)O)ccc1CN1CCN(C)CC1` [Example 68, (E)-2-(3-(3-methoxy-4-((4-methylpiperazin-1-yl)methyl)phenyl)acrylamido)benzoic acid], the cytotoxic concentration (CC50) at 48 h in series [1] was more than 300 µM. This molecule also displayed an IC50 in series [3] (setting [4]) of 44.9 µM.
`COc1cc(/C=C/C(=O)Nc2ccccc2C(=O)O)ccc1OCc1ccnn1C` [Example 60, (E)-2-(3-(3-methoxy-4-((1-methyl-1H-pyrazol-5-yl)methoxy)phenyl)acrylamido)benzoic acid] showed a CC50 at 48 h in series [1] of 100 µM. Further, inhibition in series [3] (setting [4]) was half-maximal at 20.3 µM (IC50).
In series [1], `C#CCOc1ccc(/C=C/C(=O)Nc2ccccc2C(=O)Nc2nn[nH]n2)cc1OC` [Example 31, (E)-2-(3-(3-methoxy-4-(prop-2-yn-1-yloxy)phenyl)acrylamido)-N-(2H-tetrazol-5-yl)benzamide] showed a CC50 at 48 h of more than 300 µM. In addition, the IC50 in series [3] (setting [4]) worked out at 13.9 µM.
Regarding `C#CCOc1ccc(/C=C/C(=O)Nc2ccccc2C#N)c(OCCCN(C)C)c1OC` [Example 87, (E)-N-(2-cyanophenyl)-3-[2-[3-(dimethylamino)propoxy]-3-methoxy-4-prop-2-ynoxy-phenyl]prop-2-enamide], the CC50 at 48 h in series [1] worked out at 12.1 µM. This molecule also yielded a 50% inhibitory concentration (IC50) in series [3] (setting [4]) of 3.69 µM.
The molecule `C#CCOc1ccc(/C=C/C(=O)Nc2ccccc2)cc1OC` [Example 8, (E)-3-(3-methoxy-4-(prop-2-yn-1-yloxy)phenyl)-N-phenylacrylamide] had a CC50 at 48 h in series [1] of 109 µM. Inhibition in series [3] was half-maximal at 5.33 µM (IC50).
Turning to `COc1ccc(/C=C/C(=O)Nc2cc(Cl)ccc2C(=O)O)c(OCCN(C)C)c1OC` [Example 117, (E)-4-chloro-2-(3-(2-(2-(dimethylamino)ethoxy)-3,4-dimethoxyphenyl)acrylamido)benzoic Acid], the CC50 at 48 h in series [1] was more than 300 µM. Further, the IC50 in series [3] (setting [4]) worked out at 21.4 µM.
`COc1cc(/C=C/C(=O)Nc2ccc(F)cc2)ccc1OC1CCN(C)C1` (stereo not shown) [Example 132, (E)-N-(4-fluorophenyl)-3-(3-methoxy-4-((1-methylpyrrolidin-3-yl)oxy)phenyl)actylamide trifluoroacetic acid salt]: it took 16.6 µM to reach half-maximal cytotoxicity in series [1] (CC50 at 48 h). The molecule further yielded a half-inhibitory concentration (IC50) in series [3] (setting [4]) of 12 µM.
In series [1], `C#CCOc1ccc(/C=C/C(=O)Nc2ccc(Cl)c(Cl)c2)cc1OC` [Example 7, (E)-N-(3,4-dichlorophenyl)-3-(3-methoxy-4-(prop-2-yn-1-yloxy)phenyl)acrylamide] had a CC50 at 48 h of 62.5 µM. Moreover, the IC50 in series [3] (setting [4]) stood at 1.97 µM.
Take `COc1c(OCC2CC2)ccc(/C=C/C(=O)Nc2ccccc2C(=O)O)c1OCCN(C)C` [Example 90, 2-[[(E)-3-[4-(cyclopropylmethoxy)-2-[2-(dimethylamino)ethoxy]-3-methoxy-phenyl]prop-2-enoyl]amino]benzoic acid]: the CC50 at 48 h in series [1] is more than 300 µM. Moreover, the midpoint of inhibition in series [3] (setting [4]), the IC50, lay at 21.9 µM.
On the same counts, the results for `C#CCOc1ccc(/C=C/C(=O)Nc2ccccc2C(=O)NC2CCNCC2)cc1OC` [Example 49, (E)-2-(3-(3-methoxy-4-(prop-2-yn-1-yloxy)phenyl)acrylamido)-N-(piperidin-4-yl)benzamide] are 30.6 µM and 25.3 µM.
`C#CCOc1ccc(/C=C/C(=O)Nc2ccccc2C#N)c(OCCN2CCOCC2)c1OC` [Example 85, (E)-N-(2-cyanophenyl)-3-[3-methoxy-2-(2-morpholinoethoxy)-4-prop-2-ynoxy-phenyl]prop-2-enamide] gave a CC50 at 48 h in series [1] of 109 µM. The IC50 in series [3] (setting [4]) is 8.92 µM.
In series [1], `C#CCNCc1cc(/C=C/C(=O)Nc2ccccc2C(=O)O)ccc1OC` [Example 74, (E)-2-(3-(4-methoxy-3-((prop-2-yn-1-ylamino)methyl)phenyl)acrylamido)benzoic acid] had a CC50 at 48 h of 319 µM. The same molecule yielded an IC50 in series [3] (setting [4]) of 14.7 µM.
With `C#CCOc1ccc(/C=C/C(=O)Nc2ccccc2C(=O)O)c(OCCN(C)C)c1OC` [Example 78, (E)-2-(3-(2-(2-(dimethylamino)ethoxy)-3-methoxy-4-(prop-2-yn-1-yloxy)phenyl)acrylamido)-benzoic acid], in series [1], the midpoint of cytotoxicity, the CC50 at 48 h, lay at 404 µM. Further, the IC50 in series [3] (setting [4]) amounted to 30.4 µM.
For the molecule `COc1cc(C2CC2C(=O)Nc2ccccc2F)ccc1OC1CCN(C)C1` (stereo not shown) [Example 138, N-(2-fluorophenyl)-2-(3-methoxy-4-((1-methylpyrrolidin-3-yl)oxy)phenyl)cyclopropane carboxamide], in series [1], the CC50 at 48 h is 50.9 µM. In series [3] (setting [4]), this molecule yielded an IC50 of 11 µM.
`C#CCOc1ccc(/C=C/C(=O)Nc2ccccc2C(=O)NCCOC)cc1OC` [Example 33, (E)-2-(3-(3-methoxy-4-(prop-2-yn-1-yloxy)phenyl)acrylamido)-N-(2-methoxyethyl)benzamide] returned a half-maximal cytotoxic concentration (CC50) at 48 h in series [1] of 199 µM. This molecule also showed an IC50 in series [3] (setting [4]) of 29.2 µM.
`COc1cc(C2CC2C(=O)Nc2cccc(Cl)c2)ccc1OCC1COC1` (stereo not shown) [Example 148, N-(3-chlorophenyl)-2-(3-methoxy-4-(oxetan-3-ylmethoxy)phenyl)cyclopropane-1-carboxamide]: the 50% cytotoxic concentration (CC50) at 48 h in series [1] was determined as 77.6 µM. The same molecule gave an IC50 in series [3] (setting [4]) of 8.47 µM.
Take `C#CCOc1ccc(/C=C/C(=O)Nc2ccccc2C(=O)NCc2cncn2C)cc1OC` [Example 40, (E)-2-(3-(3-methoxy-4-(prop-2-yn-1-yloxy)phenyl)acrylamido)-N-((1-methyl-1H-imidazol-5-yl)methyl)benzamide]: in series [1], the 50% cytotoxic concentration (CC50) at 48 h is more than 300 µM. In series [3] (setting [4]), this molecule displayed an IC50 of 6.76 µM.
On the same counts, the results for `COc1ccc(C2CC2C(=O)Nc2ccccc2Cl)cc1OCc1cnn(C)c1` (stereo not shown) [Example 157] are 45.3 µM and 12.6 µM.
As for `C#CCOc1ccc(/C=C/C(=O)Nc2ccccc2C(=O)NS(C)(=O)=O)cc1OC` [Example 27, (E)-2-(3-(3-methoxy-4-(prop-2-yn-1-yloxy)phenyl)acrylamido)-N-(methylsulfonyl)benzamide], the CC50 at 48 h in series [1] came out at 120 µM. Besides, the IC50 in series [3] (setting [4]) was found to be 21.4 µM.
As for `COc1ccc(C2CC2C(=O)Nc2ccc(Cl)cc2)cc1OCc1cnn(C)c1` (stereo not shown) [Example 149, N-(4-chlorophenyl)-2-(4-methoxy-3-((1-methyl-1H-pyrazol-4-yl)methoxy)phenyl)cyclopropane-1-carboxamide], in series [1], the CC50 at 48 h is more than 54.8 µM. The molecule further displayed an IC50 in series [3] (setting [4]) of 8.35 µM.
